Measured values taken from paper PMC8954350, “Non-Canonical Cannabinoid Receptors with Distinct Binding and Signaling Properties in Prostate and Other Cancer Cell Types Mediate Cell Death” (International Journal of Molecular Sciences, 2022).
Like-named read-outs stand apart in the source and are kept apart here.

Experiments:
[1] = target: T1, canonical CBRs stably expressed in CHO-hCB2 (Homo sapiens, UniProt P34972); test: Adenylyl cyclase modulation in whole CHO-hCB2 cells; format: cell-based; details: 10 μM
T1 construct: expressed in transfected cells
Protocol: Growth media contained FetalPlex (10%) and 1% pennicillin/streptomycin. Cells were cultured overnight in a humidified incubator maintained at 37 °C with 5% CO2. For some experiments, a subset of wells were treated overnight with pertussis toxin (2 μL/mL) to abolish Gi/Go protein-mediated signaling. […] After [^3H]adenine incubation, media was replaced with 0.5 mL of a Krebs–Ringer–HEPES solution (10 mM HEPES, 110 mM NaCl, 25 mM Glucose, 55 mM Sucrose, 5 mM KCl, 1 mM MgCl2, and 1.8 mM CaCl2 at pH 7.4) containing 0.5 mM IBMX, 10 μM forskolin and a receptor-saturating concentration (10^−5 M) of cannabinoid ligands to be examined. Plates were then floated in a 37 °C water bath for 15 min, followed by termination of reactions by addition of 50 μL of 2.2 N HCl to each well. Then, [^3H]cAMP was isolated by alumina column chromatography and collection in a 4 mL elution volume. Finally, 10 mL of Scintiverse^TM BD Cocktail scintillation fluid (Fisher Scientific; Hampton, NH, USA) was added to eluates and radioactivity (quantified as DPMs) was quantified via a liquid scintillation spectrophotometer (Tri Carb 2100 TR Liquid Scintillation Analyzer, Packard Instruments, Meriden, CT, USA).

DU-145 cells [2] = test: Mitochondrial membrane potential (JC-1 staining), DU-145 cells; format: cell-based, human; details: 24 h; for mitochondrial membrane potential (MMP) depolarization: JC-1
DU-145 cells [3] = test: ATP-dependent cell viability, DU-145 cells; format: cell-based, human; details: co-incubation with 10 μM ligand, 24 h
Protocol: Adenosine 5′-triphosphate (ATP) levels were quantified as a measure of DU-145 cell viability in response to cannabinoid treatement using an ATP-luciferase-based bioluminescence assay kit (CellTiter-Glo®, Sigma, MO, USA) and BioTek microplate reader (Winooski, VT, USA). DU-145 cells were seeded at a density of 8 × 10^3 cells/well in a 96-well plate and incubated for 24 h at 37 °C with 5% CO2. The next day, cells were treated with either vehicle or experimental drugs (10 or 50 μM) and incubated for another 24 h at 37 °C with 5% CO2. ATP levels were assessed following incubation by interpolation from an ATP standard curve according to the manufacturer’s protocol, as described previously.

[4] = system: CBRs expressed in PC-3 membranes; test: [^3H]WIN-55,212-2 competitive binding screen, PC-3 membranes; parameters: species or system human
Protocol: (§1) The assay was conducted as previously detailed. […] All binding reactions were conducted in triplicate, in a final volume of 1 mL, and, following mixing, were incubated for 20 min in a 37 °C water bath to achieve equilibrium. After incubation, reactions were terminated by rapid vacuum filtration through Whatman GF/B glass fiber filters (Brandel; Gaithersburg, MD, USA), followed by three washes of 4 mls of ice-cold filtration buffer (50 mM Tris, pH 7.4, and 0.05% bovine serum albumin). Samples were punched out from filter papers into scintillation vials, to which 4 mls of ScintiverseTM-BDR cocktail scintillation fluid (Fisher Scientific; Hampton, NH, USA) was added. Filters were incubated at room temperature for 24 h in scintillation fluid, vortexed, and radioactivity (measured as DPMs) was quantified via a liquid scintillation spectrophotometer (Tri Carb 2100 TR Liquid Scintillation Analyzer, Packard Instruments, Meriden, CT, USA).
(§2) These experiments were conducted to screen well-characterized cannabinoid ligands with high affinity for canonical CB1 and/or CB2Rs for binding to CBRs expressed in prostate cancer cells lines, as detailed in [33]. […] All binding reactions were conducted in triplicate, in a final volume of 1 mL, and, following mixing, were incubated for 20 min in a 37 °C water bath to achieve equilibrium. After incubation, reactions were terminated by rapid vacuum filtration and processed for radioactivity, as detailed in Section 4.5.1.

DU-145 cells [5] = test: LDH cytotoxicity, DU-145 cells; format: cell-based, human; details: 24 h
Protocol: DU-145 cells were seeded at a density of 130 × 10^3 cells/well in 6-well plates and maintained in an incubator at 37 °C with 5% CO2 for 24 h. […] Treated cells were incubated for an additional 24 h, followed by quantification of LDH release. LDH released from damaged or dying cells oxidizes lactate to produce NADH which then reacts with a water-soluble tetrazolium salt (WST) reagent to produce a yellow-colored product. The intensity of the yellow-colored product was detected with an OD reading at 450 nm (quantified by a BioTek microplate reader interfaced with SoftMax Pro 5.4.5 software; Winooski, VT, USA) and was directly proportional to the amount of LDH released. Percent cytotoxicity was calculated according to the manufacturer’s protocol as the following: % Cytotoxicity=OD450 Supernatant/Supernatant+Lysate

[6] = target: T1, canonical CBRs stably expressed in CHO-hCB2; test: [^35S]GTPγS binding, CHO-hCB2 homogenates; format: biochemical; details: 10 μM
Protocol: Non-specific binding was defined as radioactivity remaining in the presence of 10 μM of non-radioactive GTPγS and subtracted from total binding to determine specific [^35S]GTPγS binding. All binding reactions were conducted in triplicate, in a final volume of 1 mL, and, following mixing, were incubated for 30 min at 30 °C. After incubation, reactions were terminated by rapid vacuum filtration through Whatman GF/B glass fiber filters (Brandel; Gaithersburg, MD, USA), followed by three washes of 4 mls of ice-cold filtration buffer (50 mM Tris, pH 7.4, and 0.05% bovine serum albumin). Samples were punched out from filter papers into scintillation vials, to which 4 mls of ScintiverseTM-BDR cocktail scintillation fluid (Fisher Scientific; Hampton, NH, USA) was added. Filters were incubated at room temperature for 24 h in scintillation fluid, vortexed, and radioactivity (measured as DPMs) was determined via a liquid scintillation spectrophotometer (Tri Carb 2100 TR Liquid Scintillation Analyzer, Packard Instruments, Meriden, CT, USA).

[7] = system: CBRs expressed in DU-145 membranes; format: binding, human
Protocol: as §1, §2

[8] = system: CBRs expressed in HeLa cells; test: [^3H]WIN-55,212-2 competitive binding screen, HeLa membranes; parameters: species or system human; details: 1 μM ligand, 1 nM radioligand
Protocol: as §1

[9] = system: CBRs expressed in PC-12 cells; test: [^3H]CP-55,940 competitive binding screen, PC-12 membranes; parameters: species or system rat; details: 1 μM ligand, 0.2 nM radioligand
Protocol: as §1

[10] = system: canonical human CB2Rs (CHO-hCB2); parameters: method as in PMID 34592231; details: 1 μM ligand, 0.2 nM radioligand, CHO-hCB2 membranes; cited from earlier work
[11] = system: CBRs expressed in PC-3 cells; test: [^3H]CP-55,940 competitive binding screen, PC-3 membranes; parameters: species or system human; details: 1 μM ligand, 0.2 nM radioligand
Protocol: as §1

[12] = system: CBRs expressed in C6-glioma cells; test: [^3H]WIN-55,212-2 competitive binding screen, C6-glioma membranes; parameters: species or system mouse; details: 1 μM ligand, 1 nM radioligand
Protocol: as §1

[13] = system: CBRs expressed in PC-12 cells; test: [^3H]WIN-55,212-2 competitive binding screen, PC-12 membranes; parameters: species or system rat; details: 1 μM ligand, 1 nM radioligand
Protocol: as §1

[14] = system: canonical human CB2Rs (CHO-hCB2); parameters: method as in PMID 34592231; details: 1 μM ligand, 1 nM radioligand, CHO-hCB2 membranes; cited from earlier work
[15] = target: T2, canonical mouse CB1Rs (mouse brain) (Mus musculus, UniProt P47746); format: binding; details: 1 μM ligand, mouse brain membranes
T2 construct: membranes prepared from mouse brain containing a high density of mouse CB1 receptors (mCB1); from tissue; host or cells: mouse brain membrane homogenate
Protocol: as §1

[16] = system: canonical human CB1Rs (CHO-hCB1); parameters: method as in PMID 34592231; details: 1 μM ligand, 0.2 nM radioligand, CHO-hCB1 membranes; cited from earlier work
[17] = system: canonical human CB1Rs (CHO-hCB1); parameters: method as in PMID 34592231; details: 1 μM ligand, 1 nM radioligand, CHO-hCB1 membranes; cited from earlier work
[18] = system: CBRs expressed in HeLa cells; test: [^3H]CP-55,940 competitive binding screen, HeLa membranes; parameters: species or system human; details: 1 μM ligand, 0.2 nM radioligand
Protocol: as §1

[19] = system: CBRs expressed in DU-145 cells; test: [^3H]CP-55,940 competitive binding screen, DU-145 membranes; parameters: species or system human; details: 1 μM ligand, 0.2 nM radioligand
Protocol: as §1

[20] = system: CBRs expressed in C6-glioma cells; test: [^3H]CP-55,940 competitive binding screen, C6-glioma membranes; parameters: species or system mouse; details: 1 μM ligand, 0.2 nM radioligand
Protocol: as §1

T1 sequence (P34972 whole entry): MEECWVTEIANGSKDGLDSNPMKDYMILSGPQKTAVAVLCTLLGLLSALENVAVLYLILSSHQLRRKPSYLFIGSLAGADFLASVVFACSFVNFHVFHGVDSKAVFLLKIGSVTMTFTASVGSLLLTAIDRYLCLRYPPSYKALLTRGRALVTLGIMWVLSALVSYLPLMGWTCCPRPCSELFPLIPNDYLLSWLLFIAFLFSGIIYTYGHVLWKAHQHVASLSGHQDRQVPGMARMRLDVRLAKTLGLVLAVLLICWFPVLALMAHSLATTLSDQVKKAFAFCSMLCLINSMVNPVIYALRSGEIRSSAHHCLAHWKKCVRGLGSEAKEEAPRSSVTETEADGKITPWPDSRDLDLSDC
T2 sequence (P47746 whole entry): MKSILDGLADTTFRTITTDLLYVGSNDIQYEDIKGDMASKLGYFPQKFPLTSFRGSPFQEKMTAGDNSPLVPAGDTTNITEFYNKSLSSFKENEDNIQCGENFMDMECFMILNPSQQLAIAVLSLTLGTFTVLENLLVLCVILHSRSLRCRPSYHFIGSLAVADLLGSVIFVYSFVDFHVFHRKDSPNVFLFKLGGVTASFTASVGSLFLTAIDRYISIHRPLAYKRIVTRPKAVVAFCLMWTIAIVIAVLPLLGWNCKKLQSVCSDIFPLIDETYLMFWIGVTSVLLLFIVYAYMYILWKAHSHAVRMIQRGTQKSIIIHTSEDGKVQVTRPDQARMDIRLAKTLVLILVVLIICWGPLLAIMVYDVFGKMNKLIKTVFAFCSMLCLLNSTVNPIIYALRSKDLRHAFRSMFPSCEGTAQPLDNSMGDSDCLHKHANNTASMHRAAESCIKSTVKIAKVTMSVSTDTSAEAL

Structure (SMILES): COc1ccc(C(=O)c2c(C)n(CCN3CCOCC3)c3cc(I)ccc23)cc1 [AM-630]
- enhancement of forskolin-stimulated intracellular cAMP levels [1]: 117 ± 27.1%
- MMP on co-incubation with GW-405833 (10 μM) (DU-145 cells [2]; 10 μM ligand co-incubated): MMP was not significantly reduced from vehicle-treated levels
- mitochondrial membrane potential (MMP) depolarization (DU-145 cells [2]; 10 μM): had no effect on MMP
- mitochondrial membrane potential (MMP) depolarization (DU-145 cells [2]; 50 μM): had no effect on MMP
- attenuation of GW-405833 (50 μM)-induced reduction in ATP concentrations (DU-145 cells [3]): significantly attenuated
- displacement of [^3H]WIN-55,212-2 ([4]; 1 μM ligand, 1 nM radioligand, PC-3 membranes): failed to displace
- LDH release (DU-145 cells [5]; 10 μM): No significant effects
- increase in LDH release (DU-145 cells [5]; 50 μM): neither low (10 μM) nor high (50 μM) concentrations of WIN-55,212-2, AM-251 or AM-630 altered LDH release
- attenuation of GW-405833 (50 μM)-induced LDH release (DU-145 cells [5]; co-incubation with 10 μM ligand): significantly attenuated
- decrease in basal G protein activity ([^35S]GTPγS binding) [6]: 26.15 ± 5.15%
- displacement of [^3H]WIN-55,212-2 [7]: failed to displace

Structure (SMILES): CCCCCCC(C)(C)c1ccc([C@@H]2C[C@H](O)CC[C@H]2CCCO)c(O)c1 [CP-55,940]
- displacement of [^3H]WIN-55,212-2 (Figure 1B) [8]: only WIN-55,212-2, and not CP-55,940, significantly displaced
- displacement of [^3H]CP-55,940 [9]: neither the non-selective CBR ligand CP-55,940 nor WIN-55,212-2 produced significant displacement
- displacement of [^3H]CP-55,940 [10]: produced near or complete displacement
- displacement of [^3H]CP-55,940 [11]: neither the non-selective CBR ligand CP-55,940 nor WIN-55,212-2 produced significant displacement
- displacement of [^3H]WIN-55,212-2 (Figure 1B) [12]: only WIN-55,212-2, and not CP-55,940, significantly displaced
- displacement of [^3H]WIN-55,212-2 (Figure 1B) [13]: only WIN-55,212-2, and not CP-55,940, significantly displaced
- displacement of [^3H]WIN-55,212-2 (Figure 1B) [14]: produced near or complete displacement
- displacement of [^3H]CP-55,940 ([15]; 0.2 nM radioligand): produced near or complete displacement
- displacement of [^3H]WIN-55,212-2 (Figure 1B) ([15]; 1 nM radioligand): produced near or complete displacement
- displacement of [^3H]CP-55,940 [16]: produced near or complete displacement
- displacement of [^3H]WIN-55,212-2 [4]: only WIN-55,212-2, and not CP-55,940, significantly displaced
- displacement of [^3H]WIN-55,212-2 [7]: only WIN-55,212-2, and not CP-55,940, significantly displaced
- displacement of [^3H]WIN-55,212-2 (Figure 1B) [17]: produced near or complete displacement
- displacement of [^3H]CP-55,940 [18]: neither the non-selective CBR ligand CP-55,940 nor WIN-55,212-2 produced significant displacement
- displacement of [^3H]CP-55,940 [19]: neither the non-selective CBR ligand CP-55,940 nor WIN-55,212-2 produced significant displacement
- displacement of [^3H]CP-55,940 [20]: neither the non-selective CBR ligand CP-55,940 nor WIN-55,212-2 produced significant displacement
